Reference: article PMC11402852, “Genotoxicity of selected cannabinoids in human lymphoblastoid TK6 cells” (Archives of Toxicology, 2024)

Tested on: TK6 cells
Experiment: Cell cycle analysis (flow cytometry, DAPI)
Format: cell-based, human
Settings: without S9, CBG 30 µM, CBD 15 µM, CBDV 40 µM
Experimental: The cells were treated with CBG 30 µM, CBD 15 µM, CBC 15 µM, CBDV 40 µM, and CBN 15 µM for 6 or 24 h. The positive control was vincristine sulphate in a concentration of 0.0121 µM for 6 h of exposure and 0.0061 µM for 24 h. The solvent control was DMSO. Furthermore, experiments with the addition of S9 mix were performed with CBDV. In these experiments, cells were treated with CBDV (40 µM) with or without 0.25% S9 mix for 6 h. DMSO with or without the S9 mix was used as control, and the positive control was the same as mentioned above. After the treatment, cells were collected, washed twice with phosphate buffered saline (PBS) and fixed with 70% ethanol for 30 min on ice. Following each described step above, cells were centrifuged at 1000 rpm, 5 min, and 4 °C. Lastly, cells were resuspended in 1% bovine serum albumin (BSA) in PBS solution and stained with DAPI in a final concentration of 1 µg/mL for 30 min on ice. The cell distribution in different cell cycle phases was analyzed with MACSQuant® Analyzer 16 Flow Cytometer using a 450/50 nm filter and MACSQuantify™ Software 2.13 (Miltenyi Biotec, Bergisch Gladbach, Germany). For each sample, 20 000 events were analyzed. Four independent experiments were performed for 6 h of treatment without metabolic activation. Three independent experiments were done for 24 h of treatment without metabolic activation and 6 h of treatment with metabolic activation.

SMILES: C=C(C)[C@@H]1CCC(C)=C[C@H]1c1c(O)cc(CCCCC)cc1O [CBD, cannabidiol]
- Cell cycle distribution, 6 h (6 h, CBC 15 µM, CBN 15 µM): no significant changes in the normal cell cycle distribution
- Cell cycle distribution, 24 h (24 h): accumulation of cells in the G1 phase
